Laboratory results: ChEMBL document CHEMBL5370579, “Structure-based lead optimization to improve potency and selectivity of a novel tetrahydroimidazo[1,2-a]pyridine-5-carboxylic acid series of heparanase-1 inhibitor” (Bioorg Med Chem, 2023)
Active and inactive are the calls of the source. No cut-off for these calls is given here.

What was measured:
[1] = Half life in C57BL/6J mouse at 0.5 mg/kg, iv measured after 0.083 to 24 hrs by LC-MS/MS analysis; assay type: ADME, organism-based; details: in vivo, time 0.083-24 hrs
[2] = target: T1, Heparanase (Homo sapiens, UniProt Q9Y251); test: Inhibition of recombinant human HPSE1 using biotinylated heparan sulfate-Eu cryptate as substrate pre-incubated for 10 mins followed by substrate addition and measured after 60 mins by fluorescence based HTRF assay
T1 sequence (Q9Y251 whole entry): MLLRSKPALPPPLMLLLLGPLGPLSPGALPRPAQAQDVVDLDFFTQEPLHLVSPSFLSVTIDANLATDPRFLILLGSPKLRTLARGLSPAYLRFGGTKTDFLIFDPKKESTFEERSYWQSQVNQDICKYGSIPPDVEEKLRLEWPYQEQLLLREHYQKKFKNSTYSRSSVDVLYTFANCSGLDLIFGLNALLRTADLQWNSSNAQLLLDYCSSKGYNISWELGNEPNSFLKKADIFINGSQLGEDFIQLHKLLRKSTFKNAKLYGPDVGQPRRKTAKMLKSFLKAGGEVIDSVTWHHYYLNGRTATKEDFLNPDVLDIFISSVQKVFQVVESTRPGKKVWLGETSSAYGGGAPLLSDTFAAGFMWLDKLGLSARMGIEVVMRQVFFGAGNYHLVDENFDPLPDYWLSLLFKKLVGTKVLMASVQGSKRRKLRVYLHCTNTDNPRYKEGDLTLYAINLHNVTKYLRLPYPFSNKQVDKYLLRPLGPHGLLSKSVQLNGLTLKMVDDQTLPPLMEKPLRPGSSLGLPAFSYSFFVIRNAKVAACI

[3] = Volume of distribution at steady state in C57BL/6J mouse at 0.5 mg/kg, iv measured after 0.083 to 24 hrs by LC-MS/MS analysis; assay type: ADME, organism-based; details: in vivo, time 0.083-24 hrs, read-out: Vdss
[4] = Total clearance in C57BL/6J mouse at 0.5 mg/kg, iv measured after 0.083 to 24 hrs by LC-MS/MS analysis; assay type: ADME, organism-based; details: in vivo, time 0.083-24 hrs
[5] = Inhibition of recombinant human GBA using 4-MUBDG as substrate pre-incubated for 10 mins followed by substrate addition and measured after 24 hrs by fluorescence based assay
[6] = Drug excretion in C57BL/6J mouse urine at 0.5 mg/kg, iv measured after 24 hrs by LC-MS/MS analysis; assay type: ADME, organism-based; details: read-out: Drug excretion
[7] = target: T2, Beta-glucuronidase (Homo sapiens, UniProt P08236); test: Inhibition of recombinant human GUSbeta using 4-MUG as substrate pre-incubated for 10 mins followed by substrate addition and measured after 60 mins by fluorescence based assay
T2 sequence (P08236 whole entry): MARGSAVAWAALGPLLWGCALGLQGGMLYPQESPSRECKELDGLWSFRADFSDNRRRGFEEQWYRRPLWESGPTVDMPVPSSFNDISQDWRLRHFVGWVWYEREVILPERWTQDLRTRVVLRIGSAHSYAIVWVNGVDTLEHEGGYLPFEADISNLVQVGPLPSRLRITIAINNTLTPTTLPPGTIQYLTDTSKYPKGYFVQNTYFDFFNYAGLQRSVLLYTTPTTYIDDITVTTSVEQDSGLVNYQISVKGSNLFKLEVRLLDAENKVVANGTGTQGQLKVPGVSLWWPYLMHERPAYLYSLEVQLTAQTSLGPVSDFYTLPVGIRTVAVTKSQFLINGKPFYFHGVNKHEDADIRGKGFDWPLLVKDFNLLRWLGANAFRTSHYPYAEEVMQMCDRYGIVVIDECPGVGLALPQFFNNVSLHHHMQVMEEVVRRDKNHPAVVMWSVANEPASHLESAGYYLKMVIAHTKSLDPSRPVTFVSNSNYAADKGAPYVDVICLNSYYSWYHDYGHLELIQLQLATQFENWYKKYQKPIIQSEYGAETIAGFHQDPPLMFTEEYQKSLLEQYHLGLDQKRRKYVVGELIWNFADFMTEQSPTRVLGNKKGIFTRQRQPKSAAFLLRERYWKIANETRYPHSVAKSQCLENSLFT

[8] = Protein binding in C57BL/6J mouse serum at 1 ug/ml measured after 4 hrs by LC-MS/MS analysis; assay type: ADME, cell-free; details: at 1 µg/mL, read-out: PB (converted)
[9] = Drug concentration in C57BL/6J mouse plasma at 30 mg/kg, sc measured after 4 hrs by LC-MS/MS analysis; assay type: ADME, organism-based
[10] = Drug concentration in C57BL/6J mouse plasma at 3 mg/kg, sc measured after 1 hrs by LC-MS/MS analysis; assay type: ADME, organism-based
[11] = Drug concentration in C57BL/6J mouse plasma at 30 mg/kg, sc measured after 1 hrs by LC-MS/MS analysis; assay type: ADME, organism-based
[12] = Drug concentration in C57BL/6J mouse plasma at 100 mg/kg, sc measured after 1 hrs by LC-MS/MS analysis; assay type: ADME, organism-based
[13] = Drug concentration in C57BL/6J mouse plasma at 3 mg/kg, sc measured after 4 hrs by LC-MS/MS analysis; assay type: ADME, organism-based
[14] = Drug concentration in C57BL/6J mouse plasma at 100 mg/kg, sc measured after 4 hrs by LC-MS/MS analysis; assay type: ADME, organism-based
[15] = tested on: Mus musculus; test: In vivo inhibition of HPSE1 in C57BL/6J mouse at 3 to 100 mg/kg, sc measured after 1 to 4 hrs; assay type: functional, organism-based; details: dose 3-100 mg/kg, time 1-4 hrs
[16] = Inhibition of bovine liver beta-glucuronidase; assay type: tissue-based, Bos taurus

`O=C(O)[C@@H]1[C@@H](O)[C@H](O)[C@@H](O)c2nc(CCc3cccc(Oc4ccccc4)c3)cn21` gave a half-life [1] of 1.6 h, an IC50 [2] of 467 nM and a Vd [3] of 0.439 L/kg. For the same molecule, the clearance [4] was 8.18 mL/min/kg, the IC50 [5] was 53 nM and the dose excreted at 24 h [6] was 44.2%. It also gave an IC50 [7] of 8 nM and a fraction unbound at 4 h, 1 ug/ml [8] of 0.036.

In the case of `CO[C@H]1[C@H](O)[C@@H](O)c2nc(CCc3cccc(Oc4ccccc4)c3)cn2[C@@H]1C(=O)O`, the concentration at 4 h [9] is reported as 1070 ng/mL, the concentration at 1 h [10] is reported as 1240 ng/mL and the half-life [1] is reported as 2.1 h. It also gave an IC50 [2] of 442 nM, a Vd [3] of 0.666 L/kg and a clearance [4] of 5.83 mL/min/kg. For the same molecule, the concentration at 1 h [11] was 9820 ng/mL, the IC50 [5] was 439 nM and the concentration at 1 h [12] was 24200 ng/mL. The dose excreted at 24 h [6] was 31.1%, the concentration at 4 h [13] was 191 ng/mL and the IC50 [7] was 839 nM. The concentration at 4 h [14] was 1880 ng/mL, the inhibition [15] was “Active” and the fraction unbound at 4 h, 1 ug/ml [8] was 0.045.

`O=C(O)[C@@H]1[C@@H](O)[C@H](O)[C@@H](O)c2nc(CCc3ccc(S(=O)(=O)c4ccccc4)cc3)cn21` gave an IC50 [2] of 748 nM.

For `CC(C)c1ccc(Oc2cccc(CCc3cn4c(n3)[C@H](O)[C@@H](O)[C@H](O)[C@H]4C(=O)O)c2)cc1`, the IC50 [2] was 1380 nM.

In the case of `O=C(O)[C@@H]1[C@@H](O)[C@H](O)[C@@H](O)c2nccn21`, the Ki [16] is reported as 12 nM.

`O=C(O)[C@@H]1[C@@H](O)[C@H](O)[C@@H](O)c2nc(CCc3ccc(Oc4ccccc4)cc3)cn21` showed an IC50 [2] of 586 nM.

`COc1c(CCc2cn3c(n2)[C@H](O)[C@@H](O)[C@H](O)[C@H]3C(=O)O)cccc1Oc1ccccc1` showed an IC50 [2] of 1600 nM.

Work on `O=C(O)[C@@H]1[C@@H](O)[C@H](O)[C@@H](O)c2nc(CCc3ccc(CCc4ccccc4)cc3)cn21` yielded an IC50 [2] of 2000 nM.

Work on `O=C(O)[C@@H]1[C@@H](O)[C@H](O)[C@@H](O)c2nc(-c3ccc(Oc4ccccc4)cc3)cn21` yielded an IC50 [2] of 1100 nM.

For `COc1cccc(OC)c1Oc1cccc(CCc2cn3c(n2)[C@H](O)[C@@H](O)[C@H](O)[C@H]3C(=O)O)c1OC`, the IC50 [2] was 9950 nM.

Molecule `Cc1ccc(S(=O)(=O)Nc2ccc(CCc3cn4c(n3)[C@H](O)[C@@H](O)[C@H](O)[C@H]4C(=O)O)cc2)cc1` has an IC50 [2] of 1340 nM.

`O=C(O)[C@@H]1[C@@H](O)[C@H](O)[C@@H](O)c2nc(C3CCN(C(=O)c4ccccc4Oc4ccccc4)CC3)cn21` gave an IC50 [2] of 1750 nM.
